Test systems include HCT-116 colon; LOX IMVI melanoma; PC-3 prostate; SW-620 colon; OVCAR-8 ovarian; SR leukemia; UACC-62 melanoma; NCI-H522 lung; HT29 colon; EKVX NSCLC.
What all share (test): NCI-60 cell line screen, 48 h

From PubChem BioAssay (NCI) come the findings set out here.

Where “and” joins values, the source holds several entries; their conditions need not be identical. Equal values may be shown once.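 Step 1: Grow cells in 96-well plates. Step 2: Expose to compound for 48 hours at 5 concentrations. Step 3: Interpolate endpoints linearly; if unreached, use highest concentration. GI50: concentration for 50% inhibition of growth. Definition used: TGI = concentration required for complete inhibition of growth.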

As for `CN(CSc1ccc(Cl)cc1)c1ccc(CSc2ccc(Cl)cc2)cc1`, the GI50 in the test with HCT-116 colon is 3.06 µM; with LOX IMVI melanoma, 1.63 µM; with PC-3 prostate, 3.27 µM; with SW-620 colon, 3.96 µM; in the test with OVCAR-8 ovarian, 13.6 µM; with SR leukemia, 1.77 µM. Besides, the GI50 in the test on UACC-62 melanoma was 3.82 µM; in the test on NCI-H522 lung it was 1.19 µM; with HT29 colon, 12.2 µM; with EKVX NSCLC, 3.16 µM. The TGI with HCT-116 colon is 11.9 µM; in the test on LOX IMVI melanoma, 6.32 µM; in the test with PC-3 prostate, 25.8 µM; in the test on SW-620 colon it was 15.9 µM; in the test with OVCAR-8 ovarian, 39.8 µM; in the test with SR leukemia, 7.58 µM. The TGI in the test on UACC-62 melanoma worked out at 15.8 µM; with NCI-H522 lung, 6.88 µM; in the test on HT29 colon, 34.2 µM; in the test on EKVX NSCLC, 16 µM.
Turning to `CCN1C(=O)N(CC)C2C1NC(=S)N2/N=C/C=C/c1ccccc1OC` (stereo unspecified), the GI50 with HCT-116 colon is less than 0.0182 µM; with LOX IMVI melanoma it was 0.0342 µM; in the test with PC-3 prostate, 0.0411 µM; in the test on SW-620 colon it was 0.0475 µM; in the test with OVCAR-8 ovarian, 0.0378 µM; with SR leukemia it was 0.0387 µM. Moreover, the GI50 in the test on UACC-62 melanoma was 0.0458 µM; in the test with NCI-H522 lung it was 0.0253 µM; in the test on HT29 colon it was 0.0361 µM; with EKVX NSCLC, 0.0532 µM. The TGI in the test on HCT-116 colon was greater than 55.9 µM; with LOX IMVI melanoma, greater than 100 µM; with PC-3 prostate, greater than 100 µM; in the test with SW-620 colon, greater than 100 µM; in the test on OVCAR-8 ovarian, greater than 100 µM; in the test with SR leukemia it was greater than 100 µM. The TGI in the test on UACC-62 melanoma, in the test with HT29 colon and in the test with EKVX NSCLC was greater than 100 µM in each case.
On to `N#C/C(=C\c1ccc(F)cc1)n1nc2cccc(F)c2n1`, for which the GI50 in the test on HCT-116 colon was 3.57 µM; in the test on LOX IMVI melanoma, 2.92 µM; in the test on PC-3 prostate it was 4.68 µM; with SW-620 colon it was 3.45 µM; in the test on OVCAR-8 ovarian, 5.06 µM; with SR leukemia, 2.31 µM. Moreover, the GI50 in the test with UACC-62 melanoma was 3.3 µM; in the test with NCI-H522 lung, 3.24 µM; in the test with HT29 colon, 3.89 µM; with EKVX NSCLC it was 3.8 µM. Moreover, the TGI in the test with HCT-116 colon was greater than 100 µM; in the test with LOX IMVI melanoma it was 9.76 µM; in the test on PC-3 prostate, greater than 100 µM; with SW-620 colon it was greater than 100 µM; in the test with OVCAR-8 ovarian, greater than 100 µM; with SR leukemia it was greater than 100 µM. For the same compound, the TGI in the test on UACC-62 melanoma, in the test with NCI-H522 lung, with HT29 colon and with EKVX NSCLC was greater than 100 µM throughout.
With `Cn1c(NCC(CN2CCCC2)OC(=O)c2ccccc2)cc(=O)n(C)c1=O` (stereo unspecified), the GI50 in the test with HCT-116 colon, in the test on LOX IMVI melanoma, in the test on PC-3 prostate, with SW-620 colon, in the test on OVCAR-8 ovarian and with SR leukemia was greater than 100 µM each time. Also, the GI50 with UACC-62 melanoma, with NCI-H522 lung, in the test with HT29 colon and in the test with EKVX NSCLC was greater than 100 µM throughout. In addition, the TGI with HCT-116 colon, in the test with LOX IMVI melanoma, in the test with PC-3 prostate, in the test with SW-620 colon, in the test on OVCAR-8 ovarian and in the test on SR leukemia was greater than 100 µM throughout. Besides, the TGI in the test with UACC-62 melanoma, with NCI-H522 lung, with HT29 colon and in the test with EKVX NSCLC was greater than 100 µM in each case.
Regarding `O=C(Nc1ccc(I)cc1)c1cccc([N+](=O)[O-])c1O`, the GI50 with HCT-116 colon was 3.11 µM; in the test on LOX IMVI melanoma it was 3.28 µM; in the test on PC-3 prostate it was 2.72 µM; in the test on SW-620 colon, 4.44 µM; with OVCAR-8 ovarian, 4.37 µM; with SR leukemia, 2.87 µM. The GI50 with UACC-62 melanoma is 3.77 µM; with NCI-H522 lung, 2.61 µM; in the test with HT29 colon, 4.84 µM; with EKVX NSCLC, 2.59 µM. For the same compound, the TGI with HCT-116 colon was 13.8 µM; in the test on LOX IMVI melanoma, greater than 100 µM; with PC-3 prostate it was 14.6 µM; in the test on SW-620 colon, greater than 100 µM; in the test with OVCAR-8 ovarian, greater than 100 µM; in the test with SR leukemia, 19.8 µM. In addition, the TGI was 24 µM in the test on UACC-62 melanoma, 31.1 µM with NCI-H522 lung, greater than 100 µM with HT29 colon and greater than 100 µM in the test with EKVX NSCLC.
For `COc1ccc(C2CC(c3ccc4ccccc4c3)=NN2c2nc(O)c(C3=c4cc(OC)ccc4=NC3=O)s2)cc1` (stereo unspecified), the GI50 was 0.243 µM with HCT-116 colon; 0.0359 µM in the test on LOX IMVI melanoma; 0.0675 µM in the test on PC-3 prostate; 0.0249 µM in the test with SW-620 colon; 0.0646 µM in the test with OVCAR-8 ovarian; 0.0531 µM in the test with SR leukemia. For the same compound, the GI50 is 0.121 µM in the test on UACC-62 melanoma, 0.0519 µM in the test on NCI-H522 lung, 0.0458 µM with HT29 colon and 0.0898 µM in the test with EKVX NSCLC. Also, the TGI with HCT-116 colon is 0.66 µM; with LOX IMVI melanoma, 0.127 µM; in the test on PC-3 prostate, 0.334 µM; in the test with SW-620 colon, 0.0658 µM; with OVCAR-8 ovarian, 1.26 µM; with SR leukemia it was 2.92 µM. The TGI with UACC-62 melanoma was 0.368 µM; in the test on NCI-H522 lung, 0.154 µM; in the test on HT29 colon, greater than 100 µM; in the test on EKVX NSCLC, 0.355 µM.
Turning to `CC1CCC2CC1NC(=O)CCOCCC(=O)NC2(C)C` (stereo unspecified), the TGI in the test with HCT-116 colon, in the test with LOX IMVI melanoma, in the test on PC-3 prostate, in the test on SW-620 colon, with OVCAR-8 ovarian and in the test on SR leukemia was greater than 100 µM throughout. In addition, the TGI in the test on UACC-62 melanoma, in the test with NCI-H522 lung, in the test with HT29 colon and with EKVX NSCLC was greater than 100 µM in each case.
Take `O=c1[nH]c2ccccc2n2cc3ccccc3c12`: the GI50 in the test on HCT-116 colon is 2.12 µM; in the test with LOX IMVI melanoma it was 3 µM; in the test on PC-3 prostate, 5.74 µM; in the test with SW-620 colon, 3.69 µM; in the test on OVCAR-8 ovarian, 5.28 µM; in the test with SR leukemia, 2.87 µM. The GI50 was 3.22 µM in the test on UACC-62 melanoma, 13.7 µM with NCI-H522 lung, 4.37 µM in the test with HT29 colon and 4.74 µM in the test with EKVX NSCLC. Also, the TGI in the test with HCT-116 colon was 12.3 µM; in the test with LOX IMVI melanoma, 12 µM; with PC-3 prostate, 29.1 µM; in the test on SW-620 colon, greater than 100 µM; in the test on OVCAR-8 ovarian, 33.3 µM; in the test on SR leukemia, 7.7 µM. For the same compound, the TGI with UACC-62 melanoma is 15.8 µM; in the test with NCI-H522 lung, 32.3 µM; in the test on HT29 colon, greater than 100 µM; with EKVX NSCLC, 69.4 µM.
Consider `O=C(/C=C/c1cccc(S(=O)(=O)Nc2ccccc2)c1)NO`, for which the GI50 is 0.206 µM and 0.0391 µM with HCT-116 colon; 0.259 µM and 0.293 µM in the test on LOX IMVI melanoma; 0.557 µM and 0.151 µM with PC-3 prostate; 0.227 µM and 0.0308 µM with SW-620 colon; 0.309 µM and 0.0341 µM in the test with OVCAR-8 ovarian; 0.191 µM and 0.0603 µM in the test on NCI-H522 lung. For the same compound, the GI50 was 0.25 µM and 1.15 µM in the test with HT29 colon; 1.13 µM and 0.409 µM with EKVX NSCLC. The TGI in the test with HCT-116 colon is 1.18 µM; in the test with LOX IMVI melanoma, 1.62 µM and 10.2 µM; with PC-3 prostate, 51.2 µM and 21.8 µM; in the test with SW-620 colon, 9.27 µM and > 47.1 µM; in the test on OVCAR-8 ovarian, 16.9 µM and 17 µM; in the test on SR leukemia, 22.8 µM. The TGI in the test with UACC-62 melanoma is 1.53 µM and 0.196 µM; in the test with NCI-H522 lung it was 1.98 µM and 17.2 µM; in the test with HT29 colon, 15.9 µM and > 15.8 µM; with EKVX NSCLC it was greater than 100 µM.
Turning to `Cc1cc(=O)oc2cc(OC(=O)Nc3ccccc3)ccc12`, the TGI in the test on HCT-116 colon was greater than 100 µM; in the test on LOX IMVI melanoma it was greater than 100 µM; in the test with PC-3 prostate it was greater than 100 µM; in the test on SW-620 colon, greater than 100 µM; with OVCAR-8 ovarian it was greater than 100 µM; in the test on SR leukemia it was 83.5 µM. Besides, the TGI in the test with UACC-62 melanoma, with NCI-H522 lung, with HT29 colon and with EKVX NSCLC was greater than 100 µM throughout.
`CCC(C)(C)[C@H](NC(=O)[C@H]1CCCCN1C)C(=O)N(C)[C@H](C[C@@H](OC(C)=O)c1nc(C(=O)N[C@@H](Cc2ccccc2)C[C@H](C)C(=O)O)cs1)C(C)C`: the GI50 with HCT-116 colon, in the test with LOX IMVI melanoma, with PC-3 prostate, in the test on SW-620 colon, in the test on OVCAR-8 ovarian and with SR leukemia was less than 0.00167 µM each time. Further, the GI50 with UACC-62 melanoma, with NCI-H522 lung, in the test on HT29 colon and with EKVX NSCLC was less than 0.00167 µM in each case. The TGI in the test with HCT-116 colon, with LOX IMVI melanoma, with PC-3 prostate, in the test with SW-620 colon, in the test on OVCAR-8 ovarian and with SR leukemia was greater than 16.7 µM in each case. The TGI in the test with UACC-62 melanoma is greater than 16.7 µM; with NCI-H522 lung, 0.00583 µM; with HT29 colon, greater than 16.7 µM; in the test with EKVX NSCLC, greater than 16.7 µM.
Consider `C/C(=N\O)c1cccc(Nc2cc(-c3ccccc3)nc3c(O)cccc23)c1`, for which the GI50 is 2.41 µM in the test with HCT-116 colon; 3.12 µM in the test with LOX IMVI melanoma; 1.94 µM with PC-3 prostate; 0.751 µM in the test with SW-620 colon; 4.24 µM with OVCAR-8 ovarian; 0.415 µM in the test on SR leukemia. The GI50 in the test with UACC-62 melanoma is 1.64 µM; in the test on NCI-H522 lung it was 1.85 µM; in the test on HT29 colon it was 12.3 µM; in the test on EKVX NSCLC, 10.3 µM. Besides, the TGI was 15.9 µM in the test with HCT-116 colon; 19.7 µM in the test with LOX IMVI melanoma; 19.9 µM with PC-3 prostate; greater than 42.9 µM in the test on SW-620 colon; 39 µM in the test on OVCAR-8 ovarian; 16.8 µM in the test on UACC-62 melanoma. Besides, the results for the TGI with NCI-H522 lung, with HT29 colon and with EKVX NSCLC were 9.36 µM, 42.7 µM and 56.7 µM, respectively.
